Structure (SMILES) | melting point
CCCCc1ccc(NC=C(C#N)C(=O)OCC)nc1 | 69 to 73 °C
CS(=O)(=O)c1ccc(-c2cnn(-c3ccc(F)cc3)c(=O)c2N2CCCCC2)cc1 | 80 to 100 °C
CCCCCCCCCCCCN1C(=O)CC(c2cc(C(C)(C)C)c(O)c(C(C)(C)C)c2)C1=O (configuration not stated) | 66 to 70 °C
COc1ccc2c(c1)CCC1C2CCC2(C)C(=O)CC(C(C)C)C12 (configuration not stated) | 104 to 108 °C
NC1=NC(c2ccc(O)cc2)(c2cccc(-c3cccnc3F)c2)C2=NCCCN12 (configuration not stated) | 164 to 181 °C
CCOC(=O)c1cn(CC)c2sc(C=O)cc2c1=O | 205 °C
CCCCc1cc2cc([N+](=O)[O-])ccc2n1C | 77 °C
Cc1ccc(S(=O)(=O)OCC(C)C2CCC3C4CC=C5CC(O)CC(O)C5(C)C4CCC23C)cc1 (configuration not stated) | 91 to 99 °C
CC(C)Cn1cnc2c1c1ccccc1n1nnnc21 | 208 to 212 °C
CC(=O)Nc1cccc(/C=C/C(=O)N2CC(CCl)c3c2cc([N+](=O)[O-])c2ccccc32)c1 (configuration not stated) | 214 to 216 °C
COc1nc(C(F)(F)F)cc(=O)n1-c1ccc(Cl)c(OC(C)C)c1 | 55 to 58 °C
O=c1[nH]c2cc([N+](=O)[O-])ccc2c(=O)n1S(=O)(=O)c1ccc(Cl)cc1 | 258 to 260 °C
O=C1NC(=O)c2ccc(-c3ccc(F)cc3)cc2/C1=C/Nc1ccc(CN2CCCC2)cc1 | 152 to 153 °C
O=c1[nH]c2ccccc2c(=O)n1S(=O)(=O)c1ccccc1 | 211 to 213 °C
O=C(c1ccc(-c2ncc[nH]2)cc1)N1CCN(S(=O)(=O)c2ccc3cc(Cl)ccc3c2)CC1 | 159 to 161 °C
COC(=O)C(=NO)c1ccccc1COc1ccccc1C | 115 °C
O=S1(=O)NCN(C2CC2)c2ccc(Cl)cc21 | 159 to 161 °C
COc1ccccc1N1CCN(CC(O)COc2ccccc2C(=O)O)CC1 (configuration not stated) | 198 to 202 °C
C=CCn1nc(-c2ccc(OC)cc2)c(-c2ccc(OC)cc2)cc1=O | 114 to 115 °C
Cn1nc(-c2ccccc2)c(CC(=O)O)c1-c1ccccc1 | 170 to 172 °C
Cc1ccccc1C(=O)Nc1ccc(Cl)c(C(=O)OC(C)C)c1 | 137 to 138 °C
C=C(C)C(=O)OCCCOc1ccc(OC(=O)C(=C)C)cc1 | 58 °C
Cc1ccc2nc(O)c(O)nc2c1 | > 300 °C

Structure (SMILES) | melting point
CC(C)(C)OC(=O)N1C(=O)O[C@@H](c2ccncc2)[C@H]1Cc1ccc(C(F)(F)F)cc1 (racemic) | 166 to 168 °C
CCOC(=O)C1(O)C(=O)Nc2c(OC)cc(CCNC(=O)C(F)(F)F)cc21 (configuration not stated) | 115 to 117 °C
C=C(c1c(C#N)nn(-c2c(Cl)cc(C(F)(F)F)cc2Cl)c1N)C(F)(F)F | 147 to 148 °C
Fc1ccc(-c2cc(N3CCN(CC4CC4)CC3)nc3c2CCCCCC3)cc1 | 109 to 110 °C
C=Cc1ccc(Cc2ccc(C=C)cc2)cc1 | 30 to 33 °C
Cc1ccc(S(=O)(=O)OCC2Cc3cccc(-c4ccccc4Cl)c3O2)cc1 (configuration not stated) | 100 to 103 °C
O=S(=O)(OC(c1cccc(C(OS(=O)(=O)c2ccc(Cl)cc2)(C(F)(F)F)C(F)(F)F)c1)(C(F)(F)F)C(F)(F)F)c1ccc(Cl)cc1 | 125 °C
CN(c1cc(OCCCS(C)(=O)=O)cc2cc(C(=O)NCC(CN3CCN(S(C)(=O)=O)CC3)SCc3ccccc3)[nH]c12)S(=O)(=O)c1ccccn1 (configuration not stated) | 195 to 196 °C
COC(=O)c1ccc(Cl)cc1NC(=O)CSc1ccc(NC(=O)Cc2ccccc2)cc1 | 144 to 146 °C
CCOC(=O)C(=Cc1cccc([N+](=O)[O-])c1)C(C)=O | 103 to 106 °C
CC(C)(C)OC(=O)NC(Cc1ccccc1)C(O)CNCC(O)C(Cc1ccc(OCCN2CCOCC2=O)cc1)NC(=O)OC(C)(C)C (configuration not stated) | 108 to 111 °C
COc1ccc(-c2cccc(S(=O)(=O)N3CCC(Nc4nc(Nc5cccc(C(F)(F)F)c5)nc(OCC(F)(F)F)n4)CC3)c2)cc1 | 180 to 182 °C
CC(O)(CC(=O)O)c1ccc(-c2ccc(F)cc2F)cc1 (configuration not stated) | 121 to 123 °C
COC(=O)c1cc(OC)c(OCc2ccccc2)c(C23CC4CC(CC(C4)C2)C3)c1 | 229 °C
Cc1ccc(-c2c(NS(=O)(=O)c3ccc(C(C)(C)C)cc3)ncnc2OCCOc2ccc(-c3nnn[nH]3)cc2)cc1 | 165 to 166 °C
CNC(=O)NCCn1c(-c2ccc(CN3CCOCC3)cc2OC)csc1=Nc1ccc(F)c(C)c1 | 158 to 162 °C
CN1CCN(c2ccc(F)cc2C=C2CCCN(c3ccc(Cl)cc3)C2=O)CC1 | 158 to 159 °C
O=C(O)C=Cc1ccc(CCNS(=O)(=O)c2ccc(Cl)cc2)cc1 | 85 to 86 °C
O=C(Nc1ccc(Oc2ccnc(N3CCC(F)(F)CC3)n2)c2ccccc12)c1cc(F)cc(N2CCCCC2)c1 | 172 to 174 °C
CC1(C)OCCC2CC(=O)N21 (configuration not stated) | 60 to 61 °C
O=C1c2cc(Cl)c(Cl)cc2C(=O)N1CCCl | 144 to 145 °C
O=C(N[C@H]1CCC[C@@H]1O)C(O)=CC(=O)c1cc(Cc2ccc(F)cc2F)cn(Cc2ccc(F)cc2)c1=O | 85 to 86 °C
CCCCc1ccc(-c2ccc3c(c2)CC[C@H]2N(C)C(=O)CC[C@]32C)cc1 | 102 to 108 °C

Structure (SMILES) | melting point
NC1(Cl)C=CN=C(Cl)N1 (configuration not stated) | 55 to 56 °C
CCCCCCCCS(=O)(=O)c1ccc(CC(N)(CO)CO)cc1 | 108 to 109 °C
CC(C)(C)OC(=O)N1[C@@H](c2ccccc2)[C@H](C(=O)OC(=O)[C@@H]2OC(C)(C)N(C(=O)OC(C)(C)C)[C@H]2c2ccccc2)OC1(C)C | 46 °C
O=CNCc1ccccc1C(F)(F)C(F)(F)c1ccccc1 | 61 to 75 °C
COc1c(C)c(N2CCN(c3ccc(C)cc3)CC2)c(C)c2c1OC(C)C2 (configuration not stated) | 82 to 84 °C
Cc1cc(C)c(N)cc1N | 170 to 172 °C
N#C/C=C/c1ccc(Cl)cc1Cl | 156 °C
CCN1CCc2ccc(Nc3ncc(Cl)c(NCC(C)(C)NS(C)(=O)=O)n3)cc2CC1 | 118 to 121 °C
CC(O)CC#Cc1ccc(C(CC2CCCC2)C(=O)O)cc1 (configuration not stated) | 73 to 76 °C
CCCNC(=O)C(C)(C)Cc1ccc2c(c1)c(Cc1ccc(C(=O)O)cc1OC)cn2CCC | 78 to 90 °C
Cc1nc2c3c(ccn2c1C)C(O)C(O)C(c1ccsc1)N3 (configuration not stated) | 134 to 138 °C
CCS(=O)(=O)Nc1ccc(F)cc1Br | 79 to 81 °C
COC(=O)c1cc(O)ccc1OC | 110 to 112 °C
CON=Cc1nc2c(N)nc3cc(-c4cccc(CS(N)(=O)=O)c4)ccc3c2s1 | 254 to 256 °C
CCCOc1ccccc1-c1nc2nc(SC)nnc2c(=O)[nH]1 | 247 to 249 °C
O=C(O)Cc1cc(C(=O)c2ccc3cc(-c4ccccc4)[nH]c3c2)sc1-c1ccccc1 | 238 to 240 °C
Cc1cc(NC(=O)COc2ccccc2)cc(C)c1S(=O)(=O)C[N+](=O)[O-] | 166 to 167 °C
COC(=O)c1ccc(CC(C)(C)NCC(O)c2cc3ccccc3o2)cc1 (configuration not stated) | 127 to 129 °C
O=[N+]([O-])c1c(SCc2ccccc2)ccc2ccncc12 | 151 to 153 °C
CSC(=O)C(C#N)C(=O)Nc1ccc(C(F)(F)F)cc1 (configuration not stated) | 196 to 198 °C
COc1cc(C2C(=O)N(C)Cc3cc4c(cc32)OCCO4)cc(OC)c1OC (configuration not stated) | 148 to 149 °C

Reference: a melting point compilation (Tetko et al.; mined from patent text by program, amines drawn as free bases though some values may be those of a salt)
